{
  "source": "patent US5891620A",
  "about": "“Steroid sulfatase assay” (Imperial College of Science, Technology and Medicine, priority 1994, dated 1999)",
  "system": "Oestrone sulphatase activity in human white blood cells",
  "test": "Oestrone sulphatase activity in white blood cells of volunteers after an oral dose of inhibitor",
  "format": "in vivo",
  "details": "two healthy male volunteers; single oral dose 0.5 mg/Kg; white blood cells from blood samples taken for up to 28 days",
  "experimental": "Purified leukocytes (according to Tulchinsky JCEM 65, 1026, 1987) from 10 ml whole blood are suspended in 1 ml PBS-sucrose. 0.2 ml of this is used for EST assay as above (incubated for 2 hr at 37° C. in a final volume of 1 ml).\nAfter incubation, samples are extracted with 4 ml toluene. 2 ml of this is counted in 10 ml Scintillant.\nThe assay of the present invention, as described above, was investigated using two healthy, male volunteers whom received an oral dose of a steroid sulphatase inhibitor (Oestrone-3-O-sulphamate, 0.5 mg/Kg). In this regard, white blood cells were prepared from blood samples obtained from the subjects for up to 28 days. […] The results from this study confirm that the measurement of Oestrone Sulphatase activity in white blood cells will therefore allow the extent and duration of sulphatase inhibition to be monitored in subjects receiving steroid sulphatase inhibitors therapeutically. More details and results of these studies are shown in the attached FIG. 30. […] In particular, the assay of the present invention allows one to measure oestrone sulphatase activity in human white blood cells to monitor the extent of oestrone sulphatase inhibition.",
  "data": [
    {"smiles": "C[C@]12CC[C@@H]3c4ccc(OS(N)(=O)=O)cc4CC[C@H]3[C@@H]1CCC2=O", "note": "[Oestrone-3-O-sulphamate]", "values": [
      {"measurement": "inhibition of Oestrone sulphatase activity in white blood cells", "value": "significant inhibition"}
    ]}
  ]
}
